From publication PMC5540273, “Progress towards a public chemogenomic set for protein kinases and a call for contributions” (PLoS ONE, 2017) come the findings set out here.

Common to all, as to assay: KINOMEscan competition binding
In one experiment the target is T1, IRAK4 (Homo sapiens, UniProt Q9NWZ3).
T1 sequence (Q9NWZ3 1-460): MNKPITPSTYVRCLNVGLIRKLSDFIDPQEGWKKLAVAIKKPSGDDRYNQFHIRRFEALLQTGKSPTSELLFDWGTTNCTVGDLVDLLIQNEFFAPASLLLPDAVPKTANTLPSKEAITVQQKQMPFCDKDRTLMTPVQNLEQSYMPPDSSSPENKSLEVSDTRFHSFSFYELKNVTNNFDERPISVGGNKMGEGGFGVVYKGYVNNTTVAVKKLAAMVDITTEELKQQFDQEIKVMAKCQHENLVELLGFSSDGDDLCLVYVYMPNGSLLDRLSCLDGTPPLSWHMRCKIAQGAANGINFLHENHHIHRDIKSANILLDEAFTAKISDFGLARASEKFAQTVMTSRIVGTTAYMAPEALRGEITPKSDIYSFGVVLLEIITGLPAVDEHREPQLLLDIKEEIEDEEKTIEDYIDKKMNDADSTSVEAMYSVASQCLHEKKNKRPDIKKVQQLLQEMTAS
The following applies: read-out: %Inh IRAK4.

A further experiment addresses AAK1 (Homo sapiens, UniProt Q2M2I8). The following applies: read-out: %Inh AAK1.
The target of the next experiment is T2, BRSK1 (Homo sapiens, UniProt Q8TDC3).
T2 sequence (Q8TDC3 1-778): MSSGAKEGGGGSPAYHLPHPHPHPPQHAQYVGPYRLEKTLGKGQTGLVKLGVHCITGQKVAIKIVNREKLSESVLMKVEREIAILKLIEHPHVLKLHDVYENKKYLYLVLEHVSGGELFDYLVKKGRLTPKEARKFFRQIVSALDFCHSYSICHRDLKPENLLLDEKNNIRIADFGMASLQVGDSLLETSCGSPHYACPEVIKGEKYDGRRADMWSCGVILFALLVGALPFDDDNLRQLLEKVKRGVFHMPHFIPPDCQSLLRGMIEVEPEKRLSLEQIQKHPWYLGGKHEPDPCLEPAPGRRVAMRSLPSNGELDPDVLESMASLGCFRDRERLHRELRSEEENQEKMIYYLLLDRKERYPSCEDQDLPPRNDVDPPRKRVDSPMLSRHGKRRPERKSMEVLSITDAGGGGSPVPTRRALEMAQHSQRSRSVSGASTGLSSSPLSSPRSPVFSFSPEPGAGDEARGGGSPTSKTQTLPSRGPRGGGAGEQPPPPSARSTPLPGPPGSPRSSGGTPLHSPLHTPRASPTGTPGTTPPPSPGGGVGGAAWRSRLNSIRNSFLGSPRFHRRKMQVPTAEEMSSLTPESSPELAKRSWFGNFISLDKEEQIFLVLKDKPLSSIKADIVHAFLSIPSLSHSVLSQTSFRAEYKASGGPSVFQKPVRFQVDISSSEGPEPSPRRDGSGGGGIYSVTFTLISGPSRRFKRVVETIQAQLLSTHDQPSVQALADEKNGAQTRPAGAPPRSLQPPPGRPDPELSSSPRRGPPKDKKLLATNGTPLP
The following applies: read-out: %Inh BRSK1.

A further experiment deals with T3, LATS1 (Homo sapiens, UniProt O95835).
T3 sequence (O95835 1-1130): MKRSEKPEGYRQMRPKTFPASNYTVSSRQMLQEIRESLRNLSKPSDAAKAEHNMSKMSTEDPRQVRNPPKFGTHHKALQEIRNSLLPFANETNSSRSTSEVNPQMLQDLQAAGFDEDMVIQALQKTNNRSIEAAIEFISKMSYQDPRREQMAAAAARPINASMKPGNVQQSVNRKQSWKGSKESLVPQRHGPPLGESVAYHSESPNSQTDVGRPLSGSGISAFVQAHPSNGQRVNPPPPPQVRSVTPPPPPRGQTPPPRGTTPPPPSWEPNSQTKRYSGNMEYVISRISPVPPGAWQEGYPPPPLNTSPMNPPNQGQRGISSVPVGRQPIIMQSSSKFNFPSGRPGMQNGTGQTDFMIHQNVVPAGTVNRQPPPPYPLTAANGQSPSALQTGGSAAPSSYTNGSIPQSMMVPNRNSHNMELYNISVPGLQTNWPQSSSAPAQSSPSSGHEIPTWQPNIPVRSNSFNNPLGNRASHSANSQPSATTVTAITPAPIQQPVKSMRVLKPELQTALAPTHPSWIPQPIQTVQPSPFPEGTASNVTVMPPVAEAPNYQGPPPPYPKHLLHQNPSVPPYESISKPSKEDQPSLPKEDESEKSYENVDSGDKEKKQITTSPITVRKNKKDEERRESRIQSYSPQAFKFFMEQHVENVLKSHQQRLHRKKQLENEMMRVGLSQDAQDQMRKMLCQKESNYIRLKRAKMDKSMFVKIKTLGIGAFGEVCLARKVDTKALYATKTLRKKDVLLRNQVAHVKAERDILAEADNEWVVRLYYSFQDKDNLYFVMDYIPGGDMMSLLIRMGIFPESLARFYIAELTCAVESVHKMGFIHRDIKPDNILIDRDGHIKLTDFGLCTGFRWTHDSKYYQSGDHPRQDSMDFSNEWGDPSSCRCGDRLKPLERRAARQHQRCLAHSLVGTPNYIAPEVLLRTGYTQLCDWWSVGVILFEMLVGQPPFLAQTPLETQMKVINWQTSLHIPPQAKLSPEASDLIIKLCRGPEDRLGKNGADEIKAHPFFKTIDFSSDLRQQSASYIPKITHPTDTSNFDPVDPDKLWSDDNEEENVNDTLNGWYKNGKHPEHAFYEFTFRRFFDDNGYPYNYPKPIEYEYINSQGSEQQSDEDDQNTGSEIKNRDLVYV
As to conditions: read-out: %Inh LATS1.

The target in another experiment is EPHA4 (Homo sapiens, UniProt P54764). As to conditions: read-out: %Inh EPHA4.
A further experiment deals with HIPK2 (Homo sapiens, UniProt Q9H2X6). The following applies: read-out: %Inh HIPK2.
Sequence of HIPK2 (Q9H2X6 whole entry): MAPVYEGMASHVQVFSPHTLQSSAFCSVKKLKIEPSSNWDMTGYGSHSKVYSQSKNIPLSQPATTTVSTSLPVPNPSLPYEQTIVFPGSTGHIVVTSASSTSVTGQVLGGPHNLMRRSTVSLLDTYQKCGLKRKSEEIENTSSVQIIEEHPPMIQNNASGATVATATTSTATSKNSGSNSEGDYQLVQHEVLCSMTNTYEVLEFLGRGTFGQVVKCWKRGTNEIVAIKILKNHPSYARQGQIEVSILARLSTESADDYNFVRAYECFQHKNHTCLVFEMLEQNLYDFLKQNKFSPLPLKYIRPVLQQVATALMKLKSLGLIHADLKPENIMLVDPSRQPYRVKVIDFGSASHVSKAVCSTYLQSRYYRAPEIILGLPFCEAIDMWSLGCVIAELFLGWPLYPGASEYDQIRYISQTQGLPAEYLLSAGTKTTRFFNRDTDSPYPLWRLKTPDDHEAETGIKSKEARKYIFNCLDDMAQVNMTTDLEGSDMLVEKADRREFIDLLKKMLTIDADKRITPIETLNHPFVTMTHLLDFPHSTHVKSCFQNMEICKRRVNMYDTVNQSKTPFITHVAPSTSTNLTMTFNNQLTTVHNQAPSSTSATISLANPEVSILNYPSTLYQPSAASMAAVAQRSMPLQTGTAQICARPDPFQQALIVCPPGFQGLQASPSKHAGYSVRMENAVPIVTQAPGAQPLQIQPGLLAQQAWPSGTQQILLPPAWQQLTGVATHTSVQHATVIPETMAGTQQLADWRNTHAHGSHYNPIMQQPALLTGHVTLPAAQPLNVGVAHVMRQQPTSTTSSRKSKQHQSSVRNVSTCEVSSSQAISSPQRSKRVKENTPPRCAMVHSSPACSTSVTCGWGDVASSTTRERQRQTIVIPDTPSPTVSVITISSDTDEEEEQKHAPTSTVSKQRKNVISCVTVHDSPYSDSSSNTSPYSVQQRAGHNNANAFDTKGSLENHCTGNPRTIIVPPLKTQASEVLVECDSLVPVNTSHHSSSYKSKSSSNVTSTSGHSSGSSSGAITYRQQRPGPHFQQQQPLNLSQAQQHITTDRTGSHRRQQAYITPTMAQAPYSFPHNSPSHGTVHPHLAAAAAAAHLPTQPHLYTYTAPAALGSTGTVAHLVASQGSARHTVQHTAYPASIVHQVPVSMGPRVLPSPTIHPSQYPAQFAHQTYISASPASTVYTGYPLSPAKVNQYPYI

Sequence of EPHA4 (P54764 20-986): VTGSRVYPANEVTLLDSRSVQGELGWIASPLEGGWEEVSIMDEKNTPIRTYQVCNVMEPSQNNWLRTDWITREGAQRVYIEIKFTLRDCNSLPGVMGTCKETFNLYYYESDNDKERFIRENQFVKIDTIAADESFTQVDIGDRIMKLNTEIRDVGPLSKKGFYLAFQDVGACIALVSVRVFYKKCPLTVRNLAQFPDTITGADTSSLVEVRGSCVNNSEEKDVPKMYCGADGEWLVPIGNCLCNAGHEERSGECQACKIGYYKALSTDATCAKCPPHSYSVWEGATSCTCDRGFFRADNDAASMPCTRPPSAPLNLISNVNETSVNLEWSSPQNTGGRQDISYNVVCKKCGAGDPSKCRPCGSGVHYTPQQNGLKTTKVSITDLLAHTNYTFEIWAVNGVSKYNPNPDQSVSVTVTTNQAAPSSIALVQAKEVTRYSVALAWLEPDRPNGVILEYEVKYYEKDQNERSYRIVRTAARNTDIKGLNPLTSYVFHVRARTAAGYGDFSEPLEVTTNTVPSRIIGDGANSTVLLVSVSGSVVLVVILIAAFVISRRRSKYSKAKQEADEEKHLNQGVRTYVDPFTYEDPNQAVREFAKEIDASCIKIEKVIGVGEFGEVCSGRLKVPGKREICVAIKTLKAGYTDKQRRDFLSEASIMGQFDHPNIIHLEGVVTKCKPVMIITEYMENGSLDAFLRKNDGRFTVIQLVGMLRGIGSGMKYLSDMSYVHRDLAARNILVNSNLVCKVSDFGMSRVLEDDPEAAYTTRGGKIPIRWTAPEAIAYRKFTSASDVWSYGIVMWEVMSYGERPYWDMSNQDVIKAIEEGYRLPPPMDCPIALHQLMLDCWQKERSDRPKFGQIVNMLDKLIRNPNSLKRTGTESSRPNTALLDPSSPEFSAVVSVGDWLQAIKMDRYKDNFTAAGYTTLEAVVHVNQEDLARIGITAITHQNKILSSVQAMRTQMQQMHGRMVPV
Sequence of AAK1 (Q2M2I8 whole entry): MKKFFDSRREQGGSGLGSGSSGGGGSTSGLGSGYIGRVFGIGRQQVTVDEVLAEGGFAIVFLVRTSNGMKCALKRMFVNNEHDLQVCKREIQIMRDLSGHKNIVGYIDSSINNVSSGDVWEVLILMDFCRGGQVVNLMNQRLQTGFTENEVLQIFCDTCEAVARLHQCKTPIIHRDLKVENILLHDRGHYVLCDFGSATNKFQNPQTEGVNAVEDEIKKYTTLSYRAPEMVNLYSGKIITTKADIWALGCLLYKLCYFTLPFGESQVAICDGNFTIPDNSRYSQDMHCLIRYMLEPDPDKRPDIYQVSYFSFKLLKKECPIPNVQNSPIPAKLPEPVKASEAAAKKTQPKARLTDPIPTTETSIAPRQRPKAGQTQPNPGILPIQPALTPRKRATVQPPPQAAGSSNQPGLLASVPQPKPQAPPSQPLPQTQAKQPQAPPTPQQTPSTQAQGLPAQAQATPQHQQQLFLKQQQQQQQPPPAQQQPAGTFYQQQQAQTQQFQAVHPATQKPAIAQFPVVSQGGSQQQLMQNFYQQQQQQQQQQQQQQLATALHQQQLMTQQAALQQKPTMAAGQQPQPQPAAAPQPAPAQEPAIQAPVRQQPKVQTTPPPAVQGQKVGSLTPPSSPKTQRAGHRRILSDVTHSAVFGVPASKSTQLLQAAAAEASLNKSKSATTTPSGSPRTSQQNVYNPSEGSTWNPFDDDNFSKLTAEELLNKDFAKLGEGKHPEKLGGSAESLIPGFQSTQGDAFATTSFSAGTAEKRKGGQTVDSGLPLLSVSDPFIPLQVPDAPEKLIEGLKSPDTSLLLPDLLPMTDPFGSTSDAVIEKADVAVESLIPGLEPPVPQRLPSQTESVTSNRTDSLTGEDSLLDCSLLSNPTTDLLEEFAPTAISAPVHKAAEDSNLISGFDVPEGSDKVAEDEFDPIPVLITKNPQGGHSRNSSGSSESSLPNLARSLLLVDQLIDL

On to `Cn1cc(-c2cnc(N)c3c(-c4ccc5c(c4)CCN5C(=O)Cc4ccccc4)csc23)cn1` [UNC10225012A], for which the inhibition at 1 µM on IRAK4 worked out at 0%; on AAK1, 0%; on BRSK1 it was 0%; on LATS1 it was 1%; on EPHA4 it was 11%; on HIPK2, 0%.
For `CS(=O)(=O)Cc1ccc(Nc2nccc(-c3c(-c4cccc(NC(=O)C5CCCCC5)c4)nn4ncccc34)n2)cc1` [UNC10225159A], the inhibition at 1 µM was 25% on IRAK4; 0% at AAK1; 0% on BRSK1; 0% on LATS1; 14% on EPHA4; 14% at HIPK2.
Consider `Cc1ccc(NC(=O)Nc2cccc(C(F)(F)F)c2)cc1` [UNC10225187A], for which the inhibition at 1 µM at IRAK4 is 0%; on AAK1, 26%; at BRSK1 it was 0%; on LATS1, 0%; at EPHA4 it was 6%; at HIPK2, 0%.
On to `COc1cccc(OC)c1C(=O)Nc1cccc(-c2nn3ccccc3c2-c2ccnc(Nc3cccc(F)c3)n2)c1` [UNC10225310A], for which the inhibition at 1 µM on IRAK4 turned out to be 0%; at AAK1 it was 0%; on BRSK1, 0%; at LATS1, 6%; on EPHA4, 0%; at HIPK2 it was 0%.
As for `O=c1cc(N2CCOCC2)nc2n(Cc3cccc(Cl)c3Cl)c(C3CC3)nn12` [UNC10225469A], the inhibition at 1 µM amounted to 0% at IRAK4; 14% at AAK1; 3% at BRSK1; 0% at LATS1; 11% at EPHA4; 0% on HIPK2.
